Reference: publication PMC6277767, “Broad and Region-Specific Impacts of the Synthetic Cannabinoid CP 55,940 in Adolescent and Adult Female Mouse Brains” (Frontiers in Molecular Neuroscience, 2018)

Test system: CD1 female mouse brain lipidome
Assay: Brain-region lipid levels (HPLC/MS/MS lipidomics) 2 h after single i.p. 3 mg/kg CP 55,940 vs vehicle
Assay type: in vivo
Description: The Bloomington Institutional Animal Care and Use Committee of Indiana University reviewed and approved the animal procedures. Female mice from the CD1 strain were utilized to match our study examining THC’s effects on the brain lipidome ([Leishman et al., 2018]). Mice were given a single i.p. injection of either 3 mg/kg CP or 1:1:18 cremophor:ethanol:saline vehicle (please refer to the section “3 mg/kg CP Is Relevant for Synthetic Cannabinoid Abuse and Has Stronger Effects on the Female Mouse Brain Lipidome During Adolescence” for a justification of dose and use of female mice). Three different age groups were given injections: PND 35 and PND 50 adolescents, and adult mice (PND 113). At least eight mice in each age group received CP and at least eight received vehicle. Matching the THC study time course ([Leishman et al., 2018]), mice were sacrificed via rapid decapitation 2 h after injection. Brains were immediately removed and flash-frozen in liquid nitrogen, and then stored at -80°C until dissections were performed. Brains were dissected on an ice-cold dissection plate into the following regions: STR, HIPP, CER, THAL, CTX, HYP, MID, and STEM. These abbreviations for these brain areas will be used exclusively when discussing the results generated by these specific dissections. Each dissected area was immediately placed in liquid nitrogen and then stored at -80°C until used for lipid extraction.
Tissue extracts were performed as previously described ([Bradshaw et al., 2006]; [Stuart et al., 2013]; [Raboune et al., 2014]; [Leishman et al., 2016a],[b], [2017], [2018]). First, samples were shock frozen in liquid nitrogen, weighed, and transferred to a centrifuge tube. The mass of the largest sample was multiplied by 50 to determine how many milliliters of HPLC-grade methanol (Fisher, Fair Lawn, NJ, United States) to add. Then, samples were spiked with 500 pmol deuterium-labeled NAGly (d8NAGly; Cayman Chemical, Ann Arbor, MI, United States). Samples were placed on ice in darkness for 2 h then individually homogenized and centrifuged at 19,000 × g for 20 min at 20°C. Supernatants were diluted with HPLC water (purified in house) to make a solution of 75% water, 25% supernatant. Lipids were partially purified on C18 solid phase extraction columns (Agilent, Palo Alto, CA, United States). A series of four elutions with 1.5 mL of 60%, 75%, 85%, and 100% methanol were collected ([Stuart et al., 2013]; [Leishman et al., 2016a],[b], [2018]).
As previously described ([Bradshaw et al., 2006]; [Tan et al., 2006]; [Smoum et al., 2010]; [Stuart et al., 2013]; [Tortoriello et al., 2013]; [Raboune et al., 2014]; [Leishman et al., 2016a],[b], [2017], [2018]), samples were analyzed using an Applied Biosystems API 3000 triple quadrupole mass spectrometer with electrospray ionization (Foster City, CA, United States). Using an Agilent XDB-C18 reversed phase analytical column and optimized mobile phase gradients, 20 μL from each elution were chromatographed. Two Shimadzu 10ADvp pumps (Columbia, MD, United States) provided the pressure for gradient elution. Mobile phase A: 20% methanol, 80% water (v/v) and 1 mM ammonium acetate (Sigma, St. Louis, MO, United States). Mobile phase B: 100% methanol, 1 mM ammonium acetate. Every method run began with 0% mobile phase B, reached 100% mobile phase B flowing at 0.2 mL/min, and gradually returned to 0% mobile phase B.
This screening library will be referred to as the lipidome when discussing data from this study. HPLC/MS/MS data were analyzed using Analyst software (Applied Biosystems) ([Bradshaw et al., 2006]; [Tan et al., 2006]; [Stuart et al., 2013]; [Tortoriello et al., 2013]; [Raboune et al., 2014]; [Leishman et al., 2016a],[b], [2017], [2018]). Chromatograms (Supplementary Figure 3) were generated by determining the retention time of analytes from the analytical column with a [M-1] or [M+1] parent peak and a fragmentation peak corresponding to the programmed values. […]

[1] = PND 35 midbrain, 3mg/kg, one-way ANOVA

SMILES: CCCCCCC(C)(C)c1ccc([C@@H]2C[C@H](O)CC[C@H]2CCCO)c(O)c1 [CP 55,940]
- N-docosahexaenoyl methionine: Magnitude (x Veh level) (PND 35 midbrain, 3mg/kg): 0.77 x Veh level
- N-docosahexaenoyl serine: Magnitude (x Veh level) (PND 35 midbrain, 3mg/kg): 0.77 x Veh level
- N-docosahexaenoyl tyrosine: Magnitude (x Veh level) (PND 35 midbrain, 3mg/kg): 0.79 x Veh level
- N-docosahexaenoyl valine: Magnitude (x Veh level) (PND 35 midbrain, 3mg/kg): 1.67 x Veh level
- N-linoleoyl ethanolamine: Magnitude (x Veh level) (PND 35 midbrain, 3mg/kg): 1.24 x Veh level
- N-oleoyl GABA: Magnitude (x Veh level) (PND 35 midbrain, 3mg/kg): 0.81 x Veh level
- N-oleoyl ethanolamine: Magnitude (x Veh level) (PND 35 midbrain, 3mg/kg): 0.85 x Veh level
- N-oleoyl phenylalanine: Magnitude (x Veh level) (PND 35 midbrain, 3mg/kg): 1.11 x Veh level
- N-oleoyl valine: Magnitude (x Veh level) (PND 35 midbrain, 3mg/kg): 1.48 x Veh level
- N-palmitoyl leucine: Magnitude (x Veh level) (PND 35 midbrain, 3mg/kg): 1.40 x Veh level
- N-palmitoyl phenylalanine: Magnitude (x Veh level) (PND 35 midbrain, 3mg/kg): 1.31 x Veh level
- N-palmitoyl valine: Magnitude (x Veh level) (PND 35 midbrain, 3mg/kg): 1.83 x Veh level
- N-stearoyl methionine: Magnitude (x Veh level) (PND 35 midbrain, 3mg/kg): 1.15 x Veh level
- N-stearoyl tyrosine: Magnitude (x Veh level) (PND 35 midbrain, 3mg/kg): 0.82 x Veh level
- N-stearoyl valine: Magnitude (x Veh level) (PND 35 midbrain, 3mg/kg): 1.40 x Veh level
- PGE2: Magnitude (x Veh level) (PND 35 midbrain, 3mg/kg): 1.15 x Veh level
- PGF2α: Magnitude (x Veh level) (PND 35 midbrain, 3mg/kg): 1.22 x Veh level
- phoshoLEA: Magnitude (x Veh level) (PND 35 midbrain, 3mg/kg): 1.41 x Veh level
- 2-linoleoyl glycerol: Direction (rel to Veh) [1]: ↓
- 6-ketoPGF1α: Direction (rel to Veh) [1]: ↓
- Arachidonic acid: Direction (rel to Veh) [1]: ↓
- N-arachidonoyl GABA: Direction (rel to Veh) [1]: ↓
- N-arachidonoyl alanine: Direction (rel to Veh) [1]: ↓
- N-arachidonoyl glycine: Direction (rel to Veh) [1]: ↓
- N-arachidonoyl serine: Direction (rel to Veh) [1]: ↓
- N-arachidonoyl taurine: Direction (rel to Veh) [1]: ↓
- N-arachidonoyl tyrosine: Direction (rel to Veh) [1]: ↓
- N-docosahexaenoyl GABA: Direction (rel to Veh) [1]: ↓
- N-docosahexaenoyl alanine: Direction (rel to Veh) [1]: ↓
- N-docosahexaenoyl glycine: Direction (rel to Veh) [1]: ↓
- N-docosahexaenoyl leucine: Direction (rel to Veh) [1]: ↑
- N-docosahexaenoyl methionine: Direction (rel to Veh) [1]: ↓
- N-docosahexaenoyl serine: Direction (rel to Veh) [1]: ↓
- N-docosahexaenoyl tyrosine: Direction (rel to Veh) [1]: ↓
- N-docosahexaenoyl valine: Direction (rel to Veh) [1]: ↑
- N-linoleoyl ethanolamine: Direction (rel to Veh) [1]: ↑
- N-oleoyl GABA: Direction (rel to Veh) [1]: ↓
- N-oleoyl ethanolamine: Direction (rel to Veh) [1]: ↓
- N-oleoyl phenylalanine: Direction (rel to Veh) [1]: ↑
- N-oleoyl valine: Direction (rel to Veh) [1]: ↑
- N-palmitoyl leucine: Direction (rel to Veh) [1]: ↑
- N-palmitoyl phenylalanine: Direction (rel to Veh) [1]: ↑
- N-palmitoyl valine: Direction (rel to Veh) [1]: ↑
- N-stearoyl methionine: Direction (rel to Veh) [1]: ↑
- N-stearoyl tyrosine: Direction (rel to Veh) [1]: ↓
- N-stearoyl valine: Direction (rel to Veh) [1]: ↑
- PGE2: Direction (rel to Veh) [1]: ↑
- PGF2α: Direction (rel to Veh) [1]: ↑
- phoshoLEA: Direction (rel to Veh) [1]: ↑
- 2-arachidonoyl-sn-glycerol mean level (PND 35 striatum): 8.26E-11 moles per gram
- 2-linoleoyl-sn-glycerol mean level (PND 35 striatum): 6.79E-11 moles per gram
- 2-oleoyl-sn-glycerol mean level (PND 35 striatum): 6.52E-10 moles per gram
- 2-palmitoyl-sn-glycerol mean level (PND 35 striatum): 3.66E-10 moles per gram
- 6-ketoPGF1α mean level (PND 35 striatum): 5.31E-12 moles per gram
- Arachidonic acid mean level (PND 35 striatum): 1.87E-09 moles per gram
- Linoleic acid mean level (PND 35 striatum): 4.78E-10 moles per gram
- N- stearoyl valine mean level (PND 35 striatum): 4.54E-13 moles per gram
- N-arachidonoyl GABA mean level (PND 35 striatum): 7.34E-12 moles per gram
- N-arachidonoyl alanine mean level (PND 35 striatum): 7.95E-12 moles per gram
- N-arachidonoyl ethanolamine mean level (PND 35 striatum): 1.25E-11 moles per gram
- N-arachidonoyl glycine mean level (PND 35 striatum): 2.49E-11 moles per gram
- N-arachidonoyl phenylalanine mean level (PND 35 striatum): 5.08E-13 moles per gram
- N-arachidonoyl serine mean level (PND 35 striatum): 2.14E-12 moles per gram
- N-arachidonoyl taurine mean level (PND 35 striatum): 4.32E-11 moles per gram
- N-arachidonoyl tyrosine mean level (PND 35 striatum): 3.18E-13 moles per gram
- N-docosahexaenoyl GABA mean level (PND 35 striatum): 7.6E-13 moles per gram
- N-docosahexaenoyl alanine mean level (PND 35 striatum): 3E-12 moles per gram
- N-docosahexaenoyl ethanolamine mean level (PND 35 striatum): 1.6E-11 moles per gram
- N-docosahexaenoyl glycine mean level (PND 35 striatum): 1.04E-11 moles per gram
- N-docosahexaenoyl leucine mean level (PND 35 striatum): 5.34E-13 moles per gram
- N-docosahexaenoyl phenylalanine mean level (PND 35 striatum): 5.57E-13 moles per gram
- N-docosahexaenoyl serine mean level (PND 35 striatum): 9.97E-12 moles per gram
- N-linoleoyl alanine mean level (PND 35 striatum): 1.57E-12 moles per gram
- N-linoleoyl ethanolamine mean level (PND 35 striatum): 3.02E-11 moles per gram
- N-linoleoyl glycine mean level (PND 35 striatum): 1.9E-12 moles per gram
- N-linoleoyl serine mean level (PND 35 striatum): 4.58E-11 moles per gram
- N-oleoyl GABA mean level (PND 35 striatum): 1.45E-12 moles per gram
- N-oleoyl alanine mean level (PND 35 striatum): 6.67E-12 moles per gram
- N-oleoyl ethanolamine mean level (PND 35 striatum): 6.1E-11 moles per gram
- N-oleoyl glycine mean level (PND 35 striatum): 1.1E-11 moles per gram
- N-oleoyl leucine mean level (PND 35 striatum): 1.08E-12 moles per gram
- N-oleoyl methionine mean level (PND 35 striatum): 9.72E-13 moles per gram
- N-oleoyl phenylalanine mean level (PND 35 striatum): 6.72E-13 moles per gram
- N-oleoyl serine mean level (PND 35 striatum): 2.35E-10 moles per gram
- N-oleoyl tyrosine mean level (PND 35 striatum): 1.91E-13 moles per gram
- N-oleoyl valine mean level (PND 35 striatum): 3.53E-13 moles per gram
- N-palmitoyl GABA mean level (PND 35 striatum): 3.96E-12 moles per gram
- N-palmitoyl alanine mean level (PND 35 striatum): 1.47E-11 moles per gram
- N-palmitoyl ethanolamine mean level (PND 35 striatum): 3.18E-11 moles per gram
- N-palmitoyl glycine mean level (PND 35 striatum): 2.93E-11 moles per gram
- N-palmitoyl leucine mean level (PND 35 striatum): 2.54E-12 moles per gram
- N-palmitoyl methionine mean level (PND 35 striatum): 1.86E-12 moles per gram
- N-palmitoyl phenylalanine mean level (PND 35 striatum): 1.48E-12 moles per gram
- N-palmitoyl proline mean level (PND 35 striatum): 1.03E-12 moles per gram
- N-palmitoyl serine mean level (PND 35 striatum): 3.33E-11 moles per gram
- N-palmitoyl tryptophan mean level (PND 35 striatum): 2.09E-13 moles per gram
- N-palmitoyl tyrosine mean level (PND 35 striatum): 3.84E-13 moles per gram
- N-palmitoyl valine mean level (PND 35 striatum): 9.76E-13 moles per gram
- N-stearoyl GABA mean level (PND 35 striatum): 3.5E-12 moles per gram
- N-stearoyl alanine mean level (PND 35 striatum): 1.12E-11 moles per gram
- N-stearoyl ethanolamine mean level (PND 35 striatum): 9E-12 moles per gram
- N-stearoyl glycine mean level (PND 35 striatum): 1.64E-11 moles per gram
